Values joined by “and” are separate entries in the source; they are usually repeats but may differ in a detail not shown here. Equal values may be shown once. Results filed as inconclusive are left out. Positions of bridges follow the written chain, without caps; N, C: chain ends. Non-standard residues stand in square brackets, D forms with d. Residues, ends and D or L forms follow the SMILES beside them. Chains are numbered I, II in the order given. *: point of attachment. Quinoxaline2carbonyl = O=C(c1cnc2ccccc2n1)*; NMeV = CN[CH](C(=O)O)C(C)C; NMeC = CN[CH](CS)C(=O)O
Test system: CD8F1 mice, subcutaneous mammary adenocarcinoma, T/C%
Test: NCI In Vivo Anticancer Drug Screen. Data for tumor model Mammary Adenocarcinoma CD8F1 (subcutaneous) in CD8F1
Conditions: higher = larger tumour
Summary of the method: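 Tumor-bearing mice, transplantable model; readout survival or tumor size; value = treated (T) / vehicle control (C).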

[1] = endpoint: median tumor weight change, dose: 250.0 mg/kg/injection, schedule: Q01DX001 (ip), vehicle: saline with Tween-80
[2] = endpoint: median tumor weight change, dose: 500.0 mg/kg/injection, schedule: Q01DX001 (ip), vehicle: saline with Tween-80
[3] = endpoint: median tumor weight (est.), dose: 50.0 mg/kg/injection, schedule: Q07DX005 (ip), vehicle: Klucel (hydroxypropylcellulose) (HPC)
[4] = endpoint: median tumor weight (est.), dose: 100.0 mg/kg/injection, schedule: Q07DX005 (ip), vehicle: Klucel (hydroxypropylcellulose) (HPC)
[5] = endpoint: median tumor weight (est.), dose: 200.0 mg/kg/injection, schedule: Q07DX005 (ip), vehicle: Klucel (hydroxypropylcellulose) (HPC)
[6] = endpoint: median tumor weight change, dose: 1000.0 mg/kg/injection, schedule: Q01DX001 (ip), vehicle: saline with Tween-80

CCCCCCCC(=O)OCC(=O)[C@]1(O)Cc2c(O)c3c(c(O)c2[C@@H](OC2CC(N)C(O)C(C)O2)C1)C(=O)c1c(OC)cccc1C3=O (stereo partly specified)
T/C (endpoint: mean tumor weight, dose: 1.0 mg/kg/injection, schedule: Q07DX006 (ip), vehicle: saline): 62 % of control
T/C (endpoint: mean tumor weight, dose: 2.0 mg/kg/injection, schedule: Q07DX006 (ip), vehicle: saline): 19 % of control
T/C (endpoint: median tumor weight (est.), dose: 1.0 mg/kg/injection, schedule: Q07DX005 (ip), vehicle: saline): 64 % of control
T/C (endpoint: median tumor weight (est.), dose: 2.0 mg/kg/injection, schedule: Q07DX005 (ip), vehicle: saline): 64 % of control
T/C (endpoint: median tumor weight (est.), dose: 4.0 mg/kg/injection, schedule: Q07DX005 (ip), vehicle: saline): 66 % of control
T/C (endpoint: median tumor weight (est.), dose: 8.0 mg/kg/injection, schedule: Q07DX005 (ip), vehicle: saline): 11 % of control

CC1NC(=O)C(NC(=O)c2cnc3ccccc3n2)COC(=O)C(C(C)C)N(C)C(=O)C2CSSCC(C(=O)N(C)C(C(C)C)C(=O)OCC(NC(=O)c3cnc4ccccc4n3)C(=O)NC(C)C(=O)N2C)N(C)C1=O (stereo unspecified) (I: Quinoxaline2carbonyl-SA[NMeC][NMeV] / II: Quinoxaline2carbonyl-SA[NMeC][NMeV]; ester I:1-II:C, I:C-II:1; disulfide I:3-II:3; configuration not given here)
T/C (endpoint: median tumor weight change, dose: 25.0 micrograms/kg/injection, schedule: Q01DX001 (ip), vehicle: Klucel (hydroxypropylcellulose) (HPC)): 77 % of control
T/C (endpoint: median tumor weight change, dose: 50.0 micrograms/kg/injection, schedule: Q01DX001 (ip), vehicle: Klucel (hydroxypropylcellulose) (HPC)): 91 % of control
T/C (endpoint: median tumor weight change, dose: 100.0 micrograms/kg/injection, schedule: Q01DX001 (ip), vehicle: Klucel (hydroxypropylcellulose) (HPC)): 89 % of control
T/C (endpoint: median tumor weight change, dose: 200.0 micrograms/kg/injection, schedule: Q01DX001 (ip), vehicle: Klucel (hydroxypropylcellulose) (HPC)): 68 % of control
T/C (endpoint: median tumor weight change, dose: 400.0 micrograms/kg/injection, schedule: Q01DX001 (ip), vehicle: Klucel (hydroxypropylcellulose) (HPC)): 59 % of control

Cc1ncc(CNC(=O)N(CCCl)N=O)c(N)n1
T/C (endpoint: median tumor weight (est.), dose: 6.25 mg/kg/injection, schedule: Q07DX005 (ip), vehicle: saline): 18 % of control
T/C (endpoint: median tumor weight (est.), dose: 12.5 mg/kg/injection, schedule: Q07DX005 (ip), vehicle: saline): 20 % of control
T/C (endpoint: median tumor weight (est.), dose: 25.0 mg/kg/injection, schedule: Q07DX005 (ip), vehicle: saline): 14 % of control

CCOC(=O)c1ccc(NC(=O)Nc2nncs2)cc1
T/C (endpoint: median tumor weight (est.), dose: 12.5 mg/kg/injection, schedule: Q07DX005 (ip), vehicle: distilled water + Tween-80): 239 % of control
T/C (endpoint: median tumor weight (est.), dose: 25.0 mg/kg/injection, schedule: Q07DX005 (ip), vehicle: distilled water + Tween-80): 259 % of control
T/C (endpoint: median tumor weight (est.), dose: 50.0 mg/kg/injection, schedule: Q07DX005 (ip), vehicle: distilled water + Tween-80): 69 % of control
T/C (endpoint: median tumor weight (est.), dose: 400.0 mg/kg/injection, schedule: Q07DX005 (ip), vehicle: distilled water + Tween-80): 156 % of control

CC(=O)N(C)O
T/C (endpoint: median tumor weight change, dose: 125.0 mg/kg/injection, schedule: Q01DX001 (ip), vehicle: saline with Tween-80): 80 % of control
T/C [1]: 63 % of control
T/C [2]: 50 % of control

CC[n+]1ccc(Nc2ccc(NC(=O)c3ccc(C(=O)Nc4ccc(Nc5cc[n+](CC)c(N)n5)cc4)cc3)cc2)nc1N
T/C (endpoint: median tumor weight (est.), dose: 6.25 mg/kg/injection, schedule: Q07DX005 (ip), vehicle: suspension in saline): 257 % of control
T/C (endpoint: median tumor weight (est.), dose: 25.0 mg/kg/injection, schedule: Q07DX005 (ip), vehicle: suspension in saline): 77 % of control
T/C (endpoint: median tumor weight (est.), dose: 50.0 mg/kg/injection, schedule: Q07DX005 (ip), vehicle: suspension in saline): 45 % of control
T/C (endpoint: median tumor weight (est.), dose: 100.0 mg/kg/injection, schedule: Q07DX005 (ip), vehicle: suspension in saline): 41 % of control
T/C (endpoint: median tumor weight (est.), dose: 200.0 mg/kg/injection, schedule: Q07DX005 (ip), vehicle: suspension in saline): 20 % of control

Cc1cc(O)c2c(c1O)C(=O)C13C(=C2O)C(=O)C2C(O)C1C1C(O)C3C(=O)C3=C(O)c4c(O)cc(C)c(O)c4C(=O)C321 (stereo unspecified)
T/C (endpoint: median tumor weight change, dose: 15.62 mg/kg/injection, schedule: Q01DX001 (ip), vehicle: saline with Tween-80): 38 % of control
T/C (endpoint: median tumor weight change, dose: 31.25 mg/kg/injection, schedule: Q01DX001 (ip), vehicle: saline with Tween-80): 100 % of control

CCO/C=C1\SC(=S)N(c2ccccc2C)C1=O
T/C (endpoint: median tumor weight (est.), dose: 12.5 mg/kg/injection, schedule: Q07DX005 (ip), vehicle: saline with Tween-80): 106 % of control
T/C (endpoint: median tumor weight (est.), dose: 100.0 mg/kg/injection, schedule: Q07DX005 (ip), vehicle: saline with Tween-80): 115 % of control
T/C (endpoint: median tumor weight (est.), dose: 200.0 mg/kg/injection, schedule: Q07DX005 (ip), vehicle: saline with Tween-80): 95 % of control
T/C (endpoint: median tumor weight (est.), dose: 400.0 mg/kg/injection, schedule: Q07DX005 (ip), vehicle: saline with Tween-80): 67 % of control

C[CH2][Sn]([CH2]C)([O]S(C)(=O)=O)[O]S(C)(=O)=O
T/C (endpoint: median tumor weight change, dose: 3.9 mg/kg/injection, schedule: Q01DX001 (ip), vehicle: saline): 88 % of control
T/C (endpoint: median tumor weight change, dose: 7.81 mg/kg/injection, schedule: Q01DX001 (ip), vehicle: saline): 60 % of control
T/C (endpoint: median tumor weight change, dose: 15.62 mg/kg/injection, schedule: Q01DX001 (ip), vehicle: saline): 103 % of control

[I][Hg][CH2]C1OCCOC1[CH2][Hg][I] (stereo unspecified)
T/C (endpoint: median tumor weight (est.), dose: 12.5 mg/kg/injection, schedule: Q07DX005 (ip), vehicle: Klucel (hydroxypropylcellulose) (HPC)): 96 % of control
T/C (endpoint: median tumor weight (est.), dose: 25.0 mg/kg/injection, schedule: Q07DX005 (ip), vehicle: Klucel (hydroxypropylcellulose) (HPC)): 100 % of control
T/C [3]: 85 % of control
T/C [4]: 76 % of control
T/C [5]: 52 % of control

COc1cccc2c1C(=O)c1c(O)c3c(c(O)c1C2=O)CC(O)(C(=O)CO)CC3OC1CC(N)C(O)C(C)O1 (stereo unspecified)
T/C (endpoint: median tumor weight (est.), dose: 12.0 mg/kg/injection, schedule: Q07DX006 (ip), vehicle: saline): 37 % of control
T/C (endpoint: median tumor weight (est.), dose: 20.0 mg/kg/injection, schedule: Q07DX005 (ip), vehicle: water): 33 % of control
T/C (endpoint: median tumor weight (est.), dose: 24.0 mg/kg/injection, schedule: Q07DX006 (ip), vehicle: saline): 18 % of control
T/C (endpoint: median tumor weight (est.), dose: 30.0 mg/kg/injection, schedule: Q07DX005 (ip), vehicle: saline): 33 % of control
T/C (endpoint: median tumor weight (est.), dose: 30.0 mg/kg/injection, schedule: Q07DX005 (ip), vehicle: water): 11 % of control and 22 % of control
T/C (endpoint: median tumor weight (est.), dose: 45.0 mg/kg/injection, schedule: Q07DX005 (ip), vehicle: water): 1 % of control and 11 % of control
T/C (endpoint: median tumor weight (est.), dose: 48.0 mg/kg/injection, schedule: Q07DX006 (ip), vehicle: saline): 1 % of control
T/C (endpoint: median tumor weight (est.), dose: 60.0 mg/kg/injection, schedule: Q07DX005 (ip), vehicle: saline): 14 % of control and 18 % of control

C[C@@]12C(=O)OC(=O)[C@]1(C)[C@H]1CC[C@@H]2O1
T/C (endpoint: median tumor weight change, dose: 0.31 mg/kg/injection, schedule: Q01DX001 (ip), vehicle: Klucel (hydroxypropylcellulose) (HPC)): 100 % of control
T/C (endpoint: median tumor weight change, dose: 1.25 mg/kg/injection, schedule: Q01DX001 (ip), vehicle: Klucel (hydroxypropylcellulose) (HPC)): 118 % of control

OCCCN1CCCCC1CO (stereo unspecified)
T/C (endpoint: median tumor weight change, dose: 125.0 mg/kg/injection, schedule: Q01DX001 (ip), vehicle: saline): 78 % of control
T/C (endpoint: median tumor weight change, dose: 250.0 mg/kg/injection, schedule: Q01DX001 (ip), vehicle: saline): 103 % of control
T/C (endpoint: median tumor weight change, dose: 500.0 mg/kg/injection, schedule: Q01DX001 (ip), vehicle: saline): 105 % of control
T/C (endpoint: median tumor weight change, dose: 1000.0 mg/kg/injection, schedule: Q01DX001 (ip), vehicle: saline): 103 % of control

NC(Cc1ccc(N(CCCl)CCCl)cc1)C(=O)O (stereo unspecified)
T/C (endpoint: median tumor weight (est.), dose: 2.0 mg/kg/injection, schedule: Q07DX005 (ip), vehicle: Klucel (hydroxypropylcellulose) (HPC)): 39 % of control
T/C (endpoint: median tumor weight (est.), dose: 4.0 mg/kg/injection, schedule: Q07DX005 (ip), vehicle: Klucel (hydroxypropylcellulose) (HPC)): 33 % of control

CC1CN=C(c2ccc(NC(=O)c3ccc(C(=O)Nc4ccc(C5=NCC(C)N5)cc4)cc3)cc2)N1 (stereo unspecified)
T/C [3]: 51 % of control
T/C [4]: 94 % of control
T/C [5]: 36 % of control

C[C@]12CC[C@H](O)CC1=CC[C@@H]1[C@@H]2CC[C@]2(C)C(=O)CC[C@@H]12
T/C (endpoint: median tumor weight change, dose: 62.5 mg/kg/injection, schedule: Q01DX001 (ip), vehicle: saline with Tween-80): 115 % of control
T/C [1]: 104 % of control
T/C [2]: 90 % of control
T/C [6]: 70 % of control

O=C(NO)c1cc(O)c(O)c(O)c1
T/C (endpoint: median tumor weight change, dose: 300.0 mg/kg/injection, schedule: Q01DX001 (ip), vehicle: water): 124 % of control
T/C (endpoint: median tumor weight change, dose: 600.0 mg/kg/injection, schedule: Q01DX001 (ip), vehicle: water): 78 % of control

COC1C(C)OC(OC2CC(C)(O)Cc3cc4c(c(O)c32)C(=O)c2c(O)cc3c(c2C4=O)OC2OC3(C)C(O)C(N(C)C)C2O)C(OC)C1(C)OC (stereo unspecified)
T/C (endpoint: median tumor weight (est.), dose: 2.5 mg/kg/injection, schedule: Q07DX005 (ip), vehicle: other): 161 % of control
T/C (endpoint: median tumor weight (est.), dose: 5.0 mg/kg/injection, schedule: Q07DX005 (ip), vehicle: other): 94 % of control
T/C (endpoint: median tumor weight (est.), dose: 10.0 mg/kg/injection, schedule: Q07DX005 (ip), vehicle: other): 57 % of control

CCCCn1cnc2c(=S)nc[nH]c21
T/C [1]: 60 % of control
T/C [2]: 2 % of control
T/C [6]: 8 % of control
